Source: US6420412B2, “Eprosartan dihydate and a process for its production and formulation” (SmithKline Beecham Corporation, priority 1996, dated 2002)

Key:
Format in all cases: physicochemical
[1] = Moisture uptake and hydrate conversion on storage at high humidity
Experimental: (§1) Eprosartan is anhydrous, and, by itself, is stable at ambient temperature and humidity, as well as at accelerated conditions (30° C./79% RH or 40° C./75% RH for up to 6 months). […] In the former case where the hydrate is obtained by moistening the drug substance, the hydrated form is not stable, and is generally converted back into the anhydrous form during drying.

[2] = Storage stability of the drug substance
Experimental: as §1

[3] = Compactibility in the solid dosage form; details: compared to the corresponding anhydrous form

Structure (SMILES)	conversion of solid form on storage ([1]; moistened then stored in closed container, or dry powder at relative humidity of 98% or higher, ambient or higher temperatures, 8 days or longer)	moisture pick-up at higher humidities ([1]; typically up to 95% RH)	stability at accelerated conditions ([2]; 30° C./79% RH or 40° C./75% RH for up to 6 months)	stability ([2]; drug substance by itself, ambient temperature and humidity)	compactibility in the solid dosage form [3]	stability of hydrate obtained by moistening the drug substance ([2]; no excipient, during drying generally converted back into the anhydrous form)
CCCCc1ncc(/C=C(\Cc2cccs2)C(=O)O)n1Cc1ccc(C(=O)O)cc1 [Eprosartan, (E)-α-[2-n-butyl-1-[(4-carboxyphenyl)methyl]-1H-imidazol-5-yl]methylene-2-thiophenepropionic acid monomethanesulfonate]	converts to the hydrated form	does not pick up moisture	stable	stable	–	–
CCCCc1ncc(/C=C(\Cc2cccs2)C(=O)O)n1Cc1ccc(C(=O)O)cc1.CS(=O)(=O)O.O.O [dihydrate, (E)-α-[2-n-butyl-1-[(4-carboxyphenyl)methyl]-1H-imidazol-5-yl]methylene-2-thiophenepropionic acid monomethanesulfonate dihydrate]	–	–	–	–	more compactible	not stable
